target: T1, human A2a receptor (Homo sapiens, UniProt P29274); assay: A2a receptor competition binding assay (Scintillation Proximity); conditions: A2a Ki, membranes from HEK293 cells expressing human A2a receptor; 0.5 nM tritiated ligand; Cheng-Prusoff
T1 construct: purchased Perkin-Elmer RBHA2AM400UA; host or cells: HEK293 cells, used as a membrane preparation
In short: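 Ki values were obtained with the Cheng-Prusoff equation from competition curves against 0.5 nM tritiated antagonist, scintillation proximity counting after 1 h room-temperature incubation. Receptor came from HEK293 membranes pretreated with adenosine deaminase; compound final range 3000–0.15 nM, buffer Ca/Mg-free PBS with 10 mM MgCl2.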

T1 sequence (P29274 whole entry): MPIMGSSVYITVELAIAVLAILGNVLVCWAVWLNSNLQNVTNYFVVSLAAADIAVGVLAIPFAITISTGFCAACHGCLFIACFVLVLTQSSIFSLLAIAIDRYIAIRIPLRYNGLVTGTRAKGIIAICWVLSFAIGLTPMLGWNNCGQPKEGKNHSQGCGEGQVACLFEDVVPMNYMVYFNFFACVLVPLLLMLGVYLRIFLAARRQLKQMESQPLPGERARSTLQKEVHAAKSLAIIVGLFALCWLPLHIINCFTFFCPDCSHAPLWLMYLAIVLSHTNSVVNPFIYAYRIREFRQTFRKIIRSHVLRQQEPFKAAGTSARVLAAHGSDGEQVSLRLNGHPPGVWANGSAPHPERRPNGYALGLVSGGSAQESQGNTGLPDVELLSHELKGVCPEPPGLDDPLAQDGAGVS

Work on `COc1cccc2c1nc(N)n1cc(C(=O)N3C4CCCC3CC4)nc21` [Ex-208, (5-amino-7-methoxyimidazo[1,2-c]quinazolin-2-yl)(8-azabicyclo[3.2.1]octan-8-yl)methanone] yielded a Ki of 3.2 nM.

same assay, conditions: membranes from HEK293 cells expressing human A2a receptor; 0.5 nM tritiated ligand; Cheng-Prusoff; read-out: A2a Ki

First: COc1cccc(CN2CCC(Cc3cn4c(N)nc5c(F)cccc5c4n3)CC2)c1 [Ex-310, 7-fluoro-2-((1-(3-methoxybenzyl)-piperidin-4-yl)-methyl)imidazo-[1,2-c]quinazolin-5-amine]
Second: Nc1nc2c(F)cccc2c2nc(CC3CCN(Cc4cccnc4)CC3)cn12 [Ex-313, 7-fluoro-2-((1-(pyridin-3-yl-methyl)piperidin-4-yl)methyl)imidazo-[1,2-c]quinazolin-5-amine]
The Ki of the first is 5.5-fold lower: 56 nM for the first, 310 nM for the second. The first binds more tightly here.

`COc1cccc2c1nc(N)n1cc(C(=O)N3CCCC(CO)C3)nc21` (stereo not shown) [Ex-191, (5-amino-7-methoxyimidazo[1,2-c]quinazolin-2-yl)(3-(hydroxymethyl)piperidin-1-yl)methanone] and `COc1cccc2c1nc(N)n1cc(C(=O)N3CCCC(OC)C3)nc21` (stereo not shown) [Ex-240, (5-amino-7-methoxyimidazo[1,2-c]quinazolin-2-yl)(3-methoxypiperidin-1-yl)methanone] are within 1.5-fold of each other in Ki: 23 nM for the first, 30.6 nM for the second.

Going from `Nc1nc2c(F)cccc2c2nc(Cc3ccc(C(=O)NCC(c4cccnc4)N4CCOCC4)cc3)cn12` (stereo not shown) [Ex-88, 4-((5-amino-7-fluoroimidazo[1,2-c]quinazolin-2-yl)methyl)-N-(2-morpholino-2-(pyridin-3-yl)ethyl)benzamide] to `Nc1nc2c(F)cccc2c2nc(Cc3ccc(-c4cnccn4)cc3)cn12` [Ex-82, 7-fluoro-2-(4-(pyrazin-2-yl)benzyl)imidazo[1,2-c]quinazolin-5-amine], the Ki falls from 84 nM to 27 nM (3.1-fold). The second binds more tightly here.

Compared with `Nc1nc2cc(N3CCOCC3)c(F)cc2c2nc(Cc3ccccc3)cn12` [Ex-13, 2-benzyl-9-fluoro-8-morpholinoimidazo[1,2-c]quinazolin-5-amine], `COc1cccc2c1nc(N)n1cc(Cc3ccccc3N3CCOCC3)nc21` [Ex-19, 7-methoxy-2-(2-morpholinobenzyl)imidazo[1,2-c]quinazolin-5-amine] is 200-fold lower in Ki: 920 nM for the first, 4.5 nM for the second. The second binds more tightly here.

First: Nc1nc2c(F)cccc2c2nc(C(=O)N3CCC4(CCN(C(=O)Cc5ccc(F)c(F)c5)C4)C3)cn12 (stereo not shown) [Ex-282, 1-(7-(5-amino-7-fluoroimidazo[1,2-c]quinazoline-2-carbonyl)-2,7-diazaspiro[4.4]nonan-2-yl)-2-(3,4-difluorophenyl)ethan-1-one]
Second: CC(=O)N1CCC2(CCN(C(=O)c3cn4c(N)nc5c(F)cccc5c4n3)CC2)C1 [Ex-269, 1-(8-(5-amino-7-fluoroimidazo[1,2-c]quinazoline-2-carbonyl)-2,8-diazaspiro[4.5]decan-2-yl)ethan-1-one]
The Ki of the first is 6.2-fold lower: 32 nM for the first, 200 nM for the second. The first binds more tightly here.

Compared with `Nc1nc2ccccc2c2nc(C(=O)N3CCN(c4ccc(F)cc4F)CC3)cn12` [Ex-165, (5-aminoimidazo[1,2-c]quinazolin-2-yl)(4-(2,4-difluorophenyl)piperazin-1-yl)methanone], `Nc1nc2c(F)cccc2c2nc(C(=O)NCc3cccc(N4CCN(c5ccc(F)cc5F)CC4)c3)cn12` [Ex-252, 5-amino-N-(3-(4-(2,4-difluorophenyl)piperazin-1-yl)benzyl)-7-fluoroimidazo[1,2-c]quinazoline-2-carboxamide] is 1400-fold lower in Ki: 10000 nM for the first, 7.2 nM for the second. The second binds more tightly here.

`Nc1nc2c(F)cccc2c2nc(CC3CCN(c4ncc(F)cn4)CC3)cn12` [Ex-300, 7-fluoro-2-((1-(5-fluoropyrimidin-2-yl)piperidin-4-yl)methyl)imidazo[1,2-c]quinazolin-5-amine] and `Nc1nc2c(F)cccc2c2nc(CC3CCN(C(=O)c4ccc(F)cn4)CC3)cn12` [Ex-323, (4-((5-amino-7-fluoroimidazo[1,2-c]quinazolin-2-yl)-methyl)piperidin-1-yl)(5-fluoropyridin-2-yl)methanone] are within 1.5-fold of each other in Ki: 12 nM for the first, 17 nM for the second.

Going from `Nc1nc2c(-c3cnoc3)cccc2c2nc(Cc3ccccc3)cn12` [Ex-156, 2-benzyl-7-(isoxazol-4-yl)imidazo[1,2-c]quinazolin-5-amine] to `COc1cccc2c1nc(N)n1cc(Cc3ccccc3)nc21` [Ex-01, 2-benzyl-7-methoxyimidazo[1,2-c]quinazolin-5-amine], the Ki falls from 28 nM to 0.4 nM (70-fold). The second binds more tightly here.

Compared with `Nc1nc2c(F)cccc2c2nc(CN3CCCN(c4ccccn4)CC3)cn12` [Ex-119, 7-fluoro-2-((4-(pyridin-2-yl)-1,4-diazepan-1-yl)methyl)imidazo[1,2-c]quinazolin-5-amine], `Nc1nc2c(F)cccc2c2nc(CCc3ccccc3)cn12` [Ex-100, 7-fluoro-2-phenethylimidazo[1,2-c]quinazolin-5-amine] is 48-fold lower in Ki: 210 nM for the first, 4.4 nM for the second. The second binds more tightly here.

First: N#Cc1cccc(CC(=O)N2CCc3c(Cc4cn5c(N)nc6c(F)cccc6c5n4)cccc3C2)c1 [Ex-55, 3-(2-(5-((5-amino-7-fluoroimidazo[1,2-c]quinazolin-2-yl)methyl)-3,4-dihydroisoquinolin-2(1H)-yl)-2-oxoethyl)benzonitrile]
Second: Nc1nc2c(F)cccc2c2nc(Cc3cccc4c3CCNC4)cn12 [Ex-52, 7-fluoro-2-((1,2,3,4-tetrahydroisoquinolin-5-yl)methyl)imidazo-[1,2-c]quinazolin-5-amine]
The Ki of the first is 2.2-fold lower: 5.1 nM for the first, 11 nM for the second.

Compared with `COc1cccc2c1nc(N)n1cc(C(=O)N3CC[C@@H](CF)C3)nc21` [Ex-214, (R)-(5-amino-7-methoxyimidazo[1,2-c]quinazolin-2-yl)(3-(fluoromethyl)pyrrolidin-1-yl)methanone], `COc1cccc2c1nc(N)n1cc(C(=O)N3CCO[C@@H](C)C3)nc21` [Ex-182, (S)-(5-amino-7-methoxyimidazo[1,2-c]quinazolin-2-yl)(2-methylmorpholino) methanone] is 6.8-fold higher in Ki: 11 nM for the first, 75 nM for the second. The first binds more tightly here.

First: COc1cccc2c1nc(N)n1cc(C(=O)N3CCC4(CCOC4)CC3)nc21 [Ex-197, (5-amino-7-methoxyimidazo[1,2-c]quinazolin-2-yl)(2-oxa-8-azaspiro[4.5]decan-8-yl)methanone]
Second: COc1cccc2c1nc(N)n1cc(C(=O)N3CCCCC34CC4)nc21 [Ex-198, (5-amino-7-methoxyimidazo[1,2-c]quinazolin-2-yl)(4-azaspiro[2.5]octan-4-yl)methanone]
The Ki of the first is 3.9-fold higher: 22 nM for the first, 5.6 nM for the second. The second binds more tightly here.

Going from `COc1cccc2c1nc(N)n1cc(C(=O)N3CC4CC3CS(=O)(=O)C4)nc21` (stereo not shown) [Ex-237, (5-amino-7-methoxyimidazo[1,2-c]quinazolin-2-yl)(3,3-dioxido-3-thia-6-azabicyclo[3.2.1]octan-6-yl)methanone] to `COc1cccc2c1nc(N)n1cc(C(=O)N3CCCC(F)(F)C3)nc21` [Ex-172, (5-amino-7-methoxyimidazo[1,2-c]quinazolin-2-yl)(3,3-difluoropiperidin-1-yl)methanone], the Ki falls from 37 nM to 18 nM (2.1-fold). The second binds more tightly here.

`Nc1nc2c(F)cccc2c2nc(C(=O)NCc3cccc(Br)n3)cn12` [Ex-294, 5-amino-N-((6-bromopyridin-2-yl)methyl)-7-fluoroimidazo[1,2-c]quinazoline-2-carboxamide] and `Nc1nc2c(F)cccc2c2nc(C(=O)NCc3ccccc3N3CCNCC3)cn12` [Ex-261, 5-amino-7-fluoro-N-(2-(piperazin-1-yl)benzyl)imidazo[1,2-c]quinazoline-2-carboxamide] are within 1.5-fold of each other in Ki: 5.3 nM for the first, 5.4 nM for the second.

Compared with `Nc1nc2c(F)cccc2c2nc(C(=O)N3CCc4cc(CC(=O)Nc5ccccn5)ccc4C3)cn12` [Ex-283, 2-(2-(5-amino-7-fluoroimidazo[1,2-c]quinazoline-2-carbonyl)-1,2,3,4-tetrahydroisoquinolin-6-yl)-N-(pyridin-2-yl)acetamide], `Nc1nc2c(F)cccc2c2nc(C(=O)N3CCc4cc(-c5ccc(F)c(F)c5)ccc4C3)cn12` [Ex-289, (5-amino-7-fluoroimidazo[1,2-c]quinazolin-2-yl)(6-(3,4-difluorophenyl)-3,4-dihydroisoquinolin-2(1H)-yl)methanone] is 30-fold higher in Ki: 21 nM for the first, 640 nM for the second.

Compared with `COc1cccc2c1nc(N)n1cc(Cc3cccnc3N3CCOCC3)nc21` [Ex-43, 7-methoxy-2-((2-morpholinopyridin-3-yl)methyl)imidazo[1,2-c]quinazolin-5-amine], `COc1cccc2c1nc(N)n1cc(C(=O)NCc3cccc4cccnc34)nc21` [Ex-157, 5-amino-7-methoxy-N-(quinolin-8-ylmethyl)imidazo[1,2-c]quinazoline-2-carboxamide] is 3.5-fold lower in Ki: 5.2 nM for the first, 1.5 nM for the second. The second binds more tightly here.

Going from `Nc1nc2ccccc2c2nc(Cc3ccccc3C(F)(F)F)cn12` [Ex-14, 2-(2-(trifluoromethyl)benzyl)imidazo[1,2-c]quinazolin-5-amine] to `COc1cccc2c1nc(N)n1cc(Cc3ccc(C(=O)Nc4ccccc4)cc3)nc21` [Ex-89, 4-((5-amino-7-methoxyimidazo[1,2-c]quinazolin-2-yl)methyl)-N-phenylbenzamide], the Ki rises from 2.3 nM to 6.3 nM (2.7-fold).

Compared with `Cc1noc(C)c1-c1cccc2c1nc(N)n1cc(CNCc3ccccc3)nc21` [Ex-153, 2-((benzylamino)-methyl)-7-(3,5-dimethyl-isoxazol-4-yl)-imidazo[1,2-c]-quinazolin-5-amine], `CC(=O)N1CCc2cc(Cc3cn4c(N)nc5c(F)cccc5c4n3)ccc2C1` [Ex-47, 1-(6-((5-amino-7-fluoroimidazo[1,2-c]quinazolin-2-yl)methyl)-3,4-dihydroisoquinolin-2(1H)-yl)ethan-1-one] is lower in Ki: greater than 2200 nM for the first, 5.9 nM for the second.

Going from `COc1cccc2c1nc(N)n1cc(C(=O)N3CCC(C(C)C)CC3)nc21` [Ex-196, (5-amino-7-methoxyimidazo[1,2-c]quinazolin-2-yl)(4-isopropylpiperidin-1-yl)methanone] to `CCCN1CCCC2(CCN(C(=O)c3cn4c(N)nc5c(F)cccc5c4n3)CC2)C1` [Ex-279, (5-amino-7-fluoroimidazo[1,2-c]quinazolin-2-yl)(2-propyl-2,9-diazaspiro[5.5]undecan-9-yl)methanone], the Ki rises from 11 nM to 34 nM (3.1-fold). The first binds more tightly here.

same assay, conditions: value printed in the synthesis text as 'A2a=' without quantity name; read-out: A2a

`Nc1nc2c(F)cccc2c2nc(Cc3ccc4c(c3)CN(C(=O)c3ccccc3)C4)cn12` [L-005052550, (5-((5-amino-7-fluoroimidazo[1,2-c]quinazolin-2-yl)methyl)isoindolin-2-yl)(phenyl)methanone] gave a Ki of 8.4 nM.

Reference: patent US11498923B2 (Merck Sharp & Dohme Corp., priority 2017, dated 2022)
